Measured values published in PubChem BioAssay (NCI).
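Exposure lasted 48 hours, with cells grown in 96-well plates and compounds tested at five concentrations. TGI: total growth inhibition.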 Where a SMILES comes first, the peptide text is derived from it.

How the values were obtained:
Assay in all cases: inhibition of tumour cell growth, NCI panel, 48 h
A498 renal = system: A498 renal
CCRF-CEM leukemia = system: CCRF-CEM leukemia
DU-145 prostate = system: DU-145 prostate
HCT-15 colon = system: HCT-15 colon
HOP-92 NSCLC = system: HOP-92 NSCLC
IGROV1 ovarian = system: IGROV1 ovarian
K-562 leukemia = system: K-562 leukemia
MCF7 breast = system: MCF7 breast
MDA-N = system: MDA-N
NCI-H23 lung = system: NCI-H23 lung
OVCAR-4 ovarian = system: OVCAR-4 ovarian
SF-539 CNS = system: SF-539 CNS
SK-MEL-2 melanoma = system: SK-MEL-2 melanoma
SK-OV-3 ovarian = system: SK-OV-3 ovarian
SW-620 colon = system: SW-620 colon
TK-10 renal = system: TK-10 renal
U251 CNS = system: U251 CNS
UACC-257 melanoma = system: UACC-257 melanoma
UACC-62 melanoma = system: UACC-62 melanoma
A549 NSCLC = system: A549 NSCLC

Compound	TGI (A498 renal)	TGI (CCRF-CEM leukemia)	TGI (DU-145 prostate)	TGI (HCT-15 colon)	TGI (HOP-92 NSCLC)	TGI (IGROV1 ovarian)	TGI (K-562 leukemia)	TGI (MCF7 breast)	TGI (MDA-N)	TGI (NCI-H23 lung)	TGI (OVCAR-4 ovarian)	TGI (SF-539 CNS)	TGI (SK-MEL-2 melanoma)	TGI (SK-OV-3 ovarian)	TGI (SW-620 colon)	TGI (TK-10 renal)	TGI (U251 CNS)	TGI (UACC-257 melanoma)	TGI (UACC-62 melanoma)	TGI (A549 NSCLC)
CC(=O)c1cccc(NC(=O)C(=O)C(c2cnc3ccc([N+](=O)[O-])cc3n2)[N+](=O)[O-])c1 (stereo not given)	> 100 µM	> 100 µM	> 100 µM	> 100 µM	> 100 µM	> 100 µM	> 100 µM	> 100 µM	> 100 µM	> 100 µM	> 100 µM	> 100 µM	> 100 µM	> 100 µM	> 100 µM	> 100 µM	> 100 µM	> 100 µM	> 100 µM	
CCOC(=O)/C=C/[C@H](O)[C@@H](O)/C=C/C(=O)OCC	> 100 µM	32.6 µM	> 100 µM	59.7 µM	33.5 µM	> 100 µM	27.7 µM	79.7 µM	> 100 µM	> 100 µM	> 100 µM	> 100 µM	> 100 µM	> 100 µM	40.6 µM	> 100 µM	> 100 µM	> 100 µM	57.4 µM	> 100 µM
N#Cc1c(O)cc(=O)n2c1[nH]c1ccccc12	> 100 µM	> 100 µM	> 100 µM	> 100 µM	> 100 µM	> 100 µM	> 100 µM	> 100 µM	> 100 µM	> 100 µM	> 100 µM	> 100 µM	> 100 µM	> 100 µM	> 100 µM	> 100 µM	> 100 µM	> 100 µM	> 100 µM	> 100 µM
Nc1c(N2CCOCC2)c(=O)nc2[nH]/c(=C\c3ccccc3)c(=O)n12	> 100 µM	> 100 µM	> 100 µM	> 100 µM	> 100 µM	> 100 µM	93 µM	> 100 µM	> 100 µM	> 100 µM	> 100 µM	> 100 µM		> 100 µM	> 100 µM	> 100 µM	> 100 µM	> 100 µM		> 100 µM
CC1(C)C2CC3C4CC5(Nc6ccccc6C5N41)[C@]3(C)CC2=O (stereo not given in full)	> 50 µM	> 50 µM	> 50 µM	> 50 µM	> 50 µM	> 50 µM	> 50 µM	> 50 µM	> 50 µM	> 50 µM	> 50 µM	> 50 µM	> 50 µM		> 50 µM	> 50 µM	> 50 µM	> 50 µM	> 50 µM	> 50 µM
Cc1nn2c(C(=O)N/N=C/c3ccc([N+](=O)[O-])cc3)c(C)nc2s1	> 100 µM	> 100 µM	> 100 µM	> 100 µM	> 100 µM	> 100 µM	> 100 µM	> 100 µM	> 100 µM	> 100 µM	> 100 µM	> 100 µM		87 µM	> 100 µM	> 100 µM	53.5 µM	> 100 µM	> 100 µM	> 100 µM
CC(C)CC(NC(=O)C(Cc1ccccc1)NC(=O)C(Cc1c[nH]c2ccccc12)NC(=O)CNC(=O)C(N)Cc1ccc(O)cc1)C(=O)O (stereo not given) (H-YGWFL-OH; configuration not given here)	96 µM	> 100 µM	> 100 µM	> 100 µM	42.1 µM	> 100 µM		> 100 µM	> 100 µM	> 100 µM	> 100 µM	87 µM	> 100 µM	> 100 µM		> 100 µM	> 100 µM	> 100 µM	> 100 µM	> 100 µM
COc1ccc(/C=C2\Sc3nnc(CNc4ccc(Cl)cc4)n3N=C2c2cc(F)c(Cl)cc2Cl)cc1OC	> 100 µM	> 100 µM	> 100 µM	> 100 µM	> 100 µM	> 100 µM	> 100 µM	> 100 µM	> 100 µM	> 100 µM	> 100 µM	> 100 µM	> 100 µM	> 100 µM	36.9 µM	> 100 µM	> 100 µM	> 100 µM		
O=C1N[C@@H]2c3c(Br)sc(Br)c3C(=O)[C@@H]2O1	30.4 µM	3.94 µM	28.2 µM	4.05 µM	11.8 µM	11.6 µM	2.56 µM	12.6 µM	6.44 µM	7.35 µM	3.43 µM	24.1 µM	37.1 µM	32.7 µM	4.04 µM	10.5 µM	6.1 µM	8.76 µM	27.5 µM	32.6 µM
O=C(NC(Nc1ccc(F)cc1)(C(F)(F)F)C(F)(F)F)C(C(F)(F)F)C(F)(F)F	> 100 µM	19.7 µM	> 100 µM	> 100 µM	> 100 µM	> 51.5 µM	> 100 µM	> 100 µM	> 100 µM	> 100 µM	> 43.9 µM	> 85.9 µM	25.2 µM	> 100 µM	> 100 µM	> 100 µM	> 100 µM	> 100 µM	> 100 µM	> 100 µM
COC(=O)C1=CN(C2CCCCC2)C2(c3ccccc3)c3ccccc3C(=O)OC(=O)C12 (stereo not given)	> 100 µM	> 100 µM	> 100 µM	> 100 µM	> 100 µM	> 100 µM	> 100 µM	> 100 µM	> 100 µM	> 100 µM	> 100 µM	> 100 µM	> 100 µM	> 100 µM	> 100 µM	> 100 µM	> 100 µM	> 100 µM		> 100 µM
O=c1c2cc(I)ccc2nc(SCc2n[nH]c(=S)o2)n1Cc1ccccc1	34.2 µM	43.8 µM	31.1 µM	34 µM	27.9 µM	35.3 µM	70.8 µM	31.7 µM	32 µM	34.2 µM	44.4 µM	30.3 µM	30.4 µM	62.3 µM	39.6 µM	37.7 µM	31.4 µM	38.1 µM	25.4 µM	48.4 µM
